Measured values as given in patent US11186564B2, “Dual NAV1.2/5HT2a inhibitors for treating CNS disorders” (Sunovion Pharmaceuticals Inc., priority 2016, dated 2021).
Where two headings read alike, the source gives them in different places.

Biological target: T1, recombinant human serotonin receptor 5-HT2A (Homo sapiens, UniProt P28223)
T1 construct: expressed in transfected cells; method B: loaded with Ca2+ dye
Assay: 5-HT2A antagonist Ca2+ assay in CHO-K1 cells (method A aequorin luminescence / method B FLIPR fluorescence)
Assay type: cell-based
Settings: antagonist mode vs EC80 of reference agonist, method A or B
Excerpt: The methods utilized to assess the inhibitory activity of compounds on recombinant human serotonin receptor 5-HT2A was based upon previously published approaches [Jerman J C, Brough S J, Gager T, Wood M, Coldwell M C, Smart D, Middlemiss D N. Pharmacological characterisation of human 5-HT2 receptor subtypes. European Journal of Pharmacology 2001 Feb. 23; 414(1):23-30; Le Poul E, Hisada S, Mizuguchi Y, Dupriez V J, Burgeon E, Detheux M. Adaptation of aequorin functional assay to high throughput screening. J Biomolecular Screening 2002 February; 7(1):57-65.] The 5-HT2A receptor signals through Gq-phospholipase signaling cascade, which leads to a transient increase in free intracellular […] concentration. Both 5-HT2A assay methods rely upon monitoring these changes in Ca^2+ concentration.
In method A [Le Poul E, Hisada S, Mizuguchi Y, Dupriez V J, Burgeon E, Detheux M. (2002)], CHO-K1 cells engineered to stably co-express both recombinant human 5-HT2A and mitochondrial apoaequorin are used. […] For agonist testing, 50 microliters of cell suspension is mixed with 50 microliters of a solution containing test compound or reference agonist in a 96-well standard geometry microtiter plate. The resulting emission of light was recorded using a Hamamatsu Functional Drug Screening System 6000 (FDSS 6000) luminometer. For antagonist testing, 100 microliters of the solution of reference agonist (to yield an agonist concentration, EC80, sufficient to cause the cells to generate an 80% maximal luminescence response in the absence of any antagonist) is injected into the mix of cells and test compound, 15 minutes after the first injection. The resulting emission of light is recorded using Hamamatsu FDSS 6000 luminometer. IC50 values are calculated (from compound concentration dependent inhibition of agonist-induced 5-HT2A-dependent light emission) by non-linear least squares regression of the data (percent inhibition) onto equation (1) above.
In method B [Jerman J C, Brough S J, Gager T, Wood M, Coldwell M C, Smart D, Middlemiss D N. (2001)], CHO-K1 cells which had been engineered to stably co-express recombinant human 5-HT2A are used in assay done similarly to method A. In method B, the cells are loaded with a fluorogenic Ca^2+ indicator dye by pre-incubation. Addition of the reference agonist serotonin causes a transient increase in fluorescence in a suspension of the loaded cells, which can be detected using the Molecular Devices fluorometric imaging plate reader (FLIPR), a high-throughput platform for 96-well cell-based assays. Addition of test compounds that are 5-HT2A antagonists, prior to the addition of the agonist (to yield an agonist concentration, EC80, sufficient to cause the cells to generate an 80% maximal fluorescence response in the absence of any antagonist), reduces the amount of fluorescence detected by the FLIPR upon agonist addition. IC50 values are calculated (from compound concentration dependent inhibition of agonist-induced 5-HT2A-dependent fluorescence) by non-linear least squares regression of the data (percent inhibition) onto equation (1) above.

T1 sequence (P28223 whole entry): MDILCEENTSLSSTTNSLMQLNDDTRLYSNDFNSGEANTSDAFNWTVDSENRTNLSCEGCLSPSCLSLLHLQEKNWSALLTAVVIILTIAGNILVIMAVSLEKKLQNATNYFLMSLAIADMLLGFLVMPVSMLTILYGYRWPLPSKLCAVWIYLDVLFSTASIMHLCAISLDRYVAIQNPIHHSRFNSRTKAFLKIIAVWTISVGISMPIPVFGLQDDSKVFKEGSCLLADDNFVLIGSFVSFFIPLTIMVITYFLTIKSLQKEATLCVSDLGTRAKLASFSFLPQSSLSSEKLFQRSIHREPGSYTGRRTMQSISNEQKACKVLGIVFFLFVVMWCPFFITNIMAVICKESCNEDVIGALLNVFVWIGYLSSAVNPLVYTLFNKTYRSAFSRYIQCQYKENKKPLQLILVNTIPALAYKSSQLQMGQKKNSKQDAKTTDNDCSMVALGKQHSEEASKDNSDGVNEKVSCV

| IC50 (read-out: 5HT2A IC50) [µM] | Structure (SMILES) | IC50 (5HT2A IC50, μM) [µM] |
| --- | --- | --- |
| 1.93 | COc1ccccc1O[C@@H]1CCN(CCN2CCc3ccccc3C2=O)C1 [Example 13, (R)-2-(2-(3-(2-methoxyphenoxy)pyrrolidin-1-yl)ethyl)-3,4-dihydroisoquinolin-1(2H)-one] | – |
| 7.34 | OC(COC1CCCCC1)CN1CCC2(CCCN2c2ccccc2)C1 (centres unmarked) [Example 348, 1-(cyclohexyloxy)-3-(1-phenyl-1,7-diazaspiro[4.4]nonan-7-yl)propan-2-ol] | – |
| 4.3 | COc1cccc(O[C@H]2CCN(CC(O)CO[C@H]3CCc4ccccc43)C2)c1 (stereo partly drawn) [Example 39, 1-(((S)-2,3-dihydro-1H-inden-1-yl)oxy)-3-((S)-3-(3-methoxyphenoxy)pyrrolidin-1-yl)propan-2-ol] | – |
| > 16.7 | OC(COC1CCCCC1)CN1CCC2(CCCN2c2ccccc2)CC1 (centres unmarked) [Example 355, 1-(cyclohexyloxy)-3-(1-phenyl-1,8-diazaspiro[4.5]decan-8-yl)propan-2-ol] | – |
| > 3.16 | COc1ccc2c(c1)C(CN1CCC(OCc3ccncc3)CC1)CC2 (centres unmarked) [Example 248, 4-(((1-((6-methoxy-2,3-dihydro-1H-inden-1-yl)methyl)piperidin-4-yl)oxy)methyl)pyridine] | – |
| > 16.7 | N#Cc1ccc(O[C@@H]2CCN(CCN3CCc4ccccc4C3=O)C2)cc1 [Example 31, (R)-4-((1-(2-(1-oxo-3,4-dihydroisoquinolin-2(1H)-yl)ethyl)pyrrolidin-3-yl)oxy) benzonitrile] | – |
| > 3.16 | COc1ccc2c(c1)C(CN1CCC(Oc3cncnc3)CC1)CC2 (centres unmarked) [Example 126, 5-((1-((6-methoxy-2,3-dihydro-1H-inden-1-yl)methyl)piperidin-4-yl)oxy)pyrimidine] | – |
| 4.04 | COc1ccc2c(c1)C(CN1CCC(Oc3cccc(C#N)c3)CC1)CC2 (centres unmarked) [Example 110, 3-((1-((6-methoxy-2,3-dihydro-1H-inden-1-yl)methyl)piperidin-4-yl)oxy)benzonitrile] | – |
| 1.25 | Fc1ccc(O[C@H]2CCN(CC3CCc4cnccc43)C2)cc1 (stereo partly drawn) [Example 2, 5-(((S)-3-(4-fluorophenoxy)pyrrolidin-1-yl)methyl)-6,7-dihydro-5H-cyclopenta[c]pyridine] | – |
| 2.17 | O[C@@H](COC1CCCCC1)CN1CCC[C@H](Oc2ccc(F)cc2)C1 [Example 269, (R)-1-(cyclohexyloxy)-3-((S)-3-(4-fluorophenoxy)piperidin-1-yl)propan-2-ol] | – |
| > 13.1 | O=C1c2ccccc2CCN1CCN1CCC[C@H](Oc2ccc(F)cc2)C1 [Example 265, (S)-2-(2-(3-(4-fluorophenoxy)piperidin-1-yl)ethyl)-3,4-dihydroisoquinolin-1(2H)-one] | – |
| > 10 | CC(C1CCc2ccccc21)N1CCC[C@H](Oc2ccc(F)cc2)C1 (stereo partly drawn) [Example 257, (3S)-1-(1-(2,3-dihydro-1H-inden-1-yl)ethyl)-3-(4-fluorophenoxy) piperidine] | – |
| > 5.3 | OC(COc1ccccc1)CN1CCCC12CCN(c1ccccc1)CC2 (centres unmarked) [Example 352, 1-phenoxy-3-(8-phenyl-1,8-diazaspiro[4.5]decan-1-yl)propan-2-ol] | – |

The next lines start with the molecule.

| Structure (SMILES) | IC50 (read-out: 5HT2A IC50) [µM] | IC50 (5HT2A IC50, μM) [µM] |
| --- | --- | --- |
| COc1ccccc1N1CCC2(CCN(CC3CCc4cccnc43)C2)C1 (centres unmarked) [Example 336, 2-((6,7-dihydro-5H-cyclopenta[b]pyridin-7-yl)methyl)-7-(2-methoxyphenyl)-2,7-diazaspiro[4.4]nonane] | 3.28 | – |
| COc1ccc2c(c1)[C@@H](CN1C[C@@H]3CC[C@H]1CN3c1ccccc1)CC2 (single isomer, unassigned) [Compound 311] | 0.01 | – |
| O[C@H](COC1CCCCC1)CN1[C@@H]2CC[C@H]1CN(c1ccc(F)cc1)C2 [Example 289, (S)-1-(cyclohexyloxy)-3-((1R,5S)-3-(4-fluorophenyl)-3,8-diazabicyclo[3.2.1]octan-8-yl)propan-2-ol] | – | 0.02 |
| c1ccc2c(c1)COC21CCN(CC2COc3ccccc32)CC1 (centres unmarked) [Example 391, 1′-((2,3-dihydrobenzofuran-3-yl)methyl)-3H-spiro[isobenzofuran-1,4′-piperidine]] | – | 14.1 |
| C[C@@H]1C[C@@]2(CCc3ccccc3O2)CCN1CCO[C@H]1CCc2ccccc21 [Example 434, (2R,2′R)-1′-(2-(((S)-2,3-dihydro-1H-inden-1-yl)oxy)ethyl)-2′-methylspiro[chromane-2,4′-piperidine]] | 0.73 | – |
| COc1ccccc1O[C@@H]1CCN(CC2Cc3cccnc3C2)[C@@H](C)C1 (stereo partly drawn) [Example 149, 6-(((2S,4R)-4-(2-methoxyphenoxy)-2-methylpiperidin-1-yl)methyl)-6,7-dihydro-5H-cyclopenta[b]pyridine] | 0.3 | – |
| OC(CO[C@@H]1CCCc2ccccc21)CN1CC[C@H](Oc2ccc(F)cc2)C1 (stereo partly drawn) [Example 51, 1-((S)-3-(4-fluorophenoxy)pyrrolidin-1-yl)-3-(((R)-1,2,3,4-tetrahydronaphthalen-1-yl)oxy)propan-2-ol] | 0.49 | – |
| c1cnc(OC2CCN(CC3Cc4cccnc4C3)CC2)nc1 (centres unmarked) [Example 157, 6-((4-(pyrimidin-2-yloxy)piperidin-1-yl)methyl)-6,7-dihydro-5H-cyclopenta[b]pyridine] | > 10 | – |
| COc1ccccc1CN1CCC2(CCN(c3ccccc3)C2)C1 (centres unmarked) [Example 342, 2-(2-methoxybenzyl)-7-phenyl-2,7-diazaspiro[4.4]nonane] | 2.08 | – |
| c1ccc2c(c1)CC1(CCN(CC3CCc4cccnc43)CC1)O2 (centres unmarked) [Example 394, 1′-((6,7-dihydro-5H-cyclopenta[b]pyridin-7-yl)methyl)-3H-spiro[benzofuran-2,4′-piperidine]] | > 10.9 | – |
| OC(COC1CCCCC1)CN1CCC2(CC1)COc1ccccc12 (centres unmarked) [Example 389, 1-(cyclohexyloxy)-3-(2H-spiro[benzofuran-3,4′-piperidin]-1′-yl)propan-2-ol] | – | 8.58 |
| COc1ccc2c(c1)C(CN1C[C@H]3CC[C@@H]1CN3c1ccccc1)CC2 (single isomer, unassigned) [Compound 314] | > 10 | – |
| c1ccc(CCN2C[C@@H]3C[C@H](C2)N(c2ccccc2)C3)cc1 [Example 330, (1S,5R)-3-phenethyl-6-phenyl-3,6-diazabicyclo[3.2.1]octane] | > 16.7 | – |
| O[C@H](COC1CCCCC1)CN1C[C@@H]2C[C@H](C1)N(c1ccccc1)C2 [Example 333, (S)-1-(cyclohexyloxy)-3-((1S,5R)-6-phenyl-3,6-diazabicyclo[3.2.1]octan-3-yl)propan-2-ol] | > 16.7 | – |
| COc1ccc2c(c1)[C@H](CN1C[C@@H]3CC[C@H]1CN3c1ccccc1)CC2 (single isomer, unassigned) [Compound 312] | 0.43 | – |
| OC(CO[C@H]1CCc2ccccc21)CN1CC[C@@H](Oc2cccc(F)c2)C1 (stereo partly drawn) [Example 34, 1-(((S)-2,3-dihydro-1H-inden-1-yl)oxy)-3-((R)-3-(3-fluorophenoxy)pyrrolidin-1-yl)propan-2-ol] | 4.66 | – |
| O=C1c2ccccc2CCN1CCN1CC[C@H](Oc2ccccn2)C1 [Example 16, (S)-2-(2-(3-(pyridin-2-yloxy)pyrrolidin-1-yl)ethyl)-3,4-dihydroisoquinolin-1(2H)-one] | 1.85 | – |
| COc1ccccc1O[C@H]1CCN(CCC2CCOc3ccccc32)[C@@H](C)C1 (stereo partly drawn) [Example 181, (2S,4S)-1-(2-(chroman-4-yl)ethyl)-4-(2-methoxyphenoxy)-2-methylpiperidine] | > 10 | – |
| OC(CO[C@H]1CCCc2ccccc21)CN1CC[C@H](Oc2ccc(F)cc2)C1 (stereo partly drawn) [Example 49, 1-((S)-3-(4-fluorophenoxy)pyrrolidin-1-yl)-3-(((S)-1,2,3,4-tetrahydronaphthalen-1-yl)oxy)propan-2-ol] | 2.55 | – |
| c1ccc(N2C[C@@H]3C[C@H]2CCN3CC2Cc3ccncc3C2)cc1 (stereo partly drawn) [Example 321, 6-(((1S,5R)-6-phenyl-2,6-diazabicyclo[3.2.1]octan-2-yl)methyl)-6,7-dihydro-5H-cyclopenta[c]pyridine] | > 10 | – |
| COc1ccccc1O[C@@H]1CCN(CC2Cc3ccccc3C2)C[C@H]1C [Example 145, (3R,4R)-1-((2,3-dihydro-1H-inden-2-yl)methyl)-4-(2-methoxyphenoxy)-3-methylpiperidine] | 0.01 | – |
| Cc1cccc(N2CCN(CC3CCOc4ccccc43)CC2)c1C (centres unmarked) [Example 59, 1-(chroman-4-ylmethyl)-4-(2,3-dimethylphenyl)piperazine] | 0.8 | – |
